PMC8482815, “Targeting Host Glycolysis as a Strategy for Antimalarial Development” (Frontiers in Cellular and Infection Microbiology, 2021)
Where “and” joins values, the source holds several entries; their conditions need not be identical. Equal entries are not always repeated.

Tested on: human erythrocytes
Experiment: Untargeted metabolomics and 13C-glucose tracing of enolase inhibitor treated erythrocytes
Assay type: cell-based
Settings: 1h
Experimental: Freshly collected erythrocytes were washed, resuspended to 10% hematocrit in buffer [25mM HEPES (pH 7.4), 120mM NaCl, 5.4mM KCl, 1.8mM CaCl2, and 1mM NaH2PO4], incubated for 1 hour at 37°C, then centrifuged at 2000xg for 5 minutes at 4°C, resuspended in fresh wash buffer to 30-40% hematocrit, and split into 210µL aliquots of packed erythrocytes. […] All samples were incubated at 37°C shaking at 500 RPM. Triplicate samples of supernatants and packed erythrocytes were collected at 0, 0.5, 1, and 6-hour intervals and snap-frozen in liquid N2.
RBC and media samples were extracted at 1:10 and 1:20 dilutions, respectively, in 5:3:2 MeOH : MeCN:H2O v/v/v, and supernatants analyzed on a Thermo Vanquish UHPLC coupled to a Thermo Q Exactive mass spectrometer, as extensively described ([Nemkov et al., 2015]; [Nemkov et al., 2017]). The extraction buffer was supplemented with 40uM 3-^13C lactate to allow absolute quantification of lactate isotopologues, including lactate generated via glycolysis ([1,2,3-^13C3] enriched) vs. the pentose phosphate pathway ([2,3-^13C2] enriched), as described ([Reisz et al., 2016]). Metabolite assignments, peak area integration and isotopologues distributions were determined using Maven (Princeton University) ([Nemkov et al., 2015]; [Nemkov et al., 2017]).
Data were auto-scaled and normalized to zero-hour time points. Metabolites were removed from the dataset if greater than 50% of the samples contained missing values or the relative standard deviation among replicates exceeded 25%. Additionally, data was filtered using the interquartile range to reduce near-constant values from the experiment by 5%.
A principal component analysis of preprocessed data was plotted with the 95% confidence interval minimum volume enclosing ellipsoid for each respective group (MetaboAnalyst, cluster, plotly). A two-way repeated measures analysis of variance (ANOVA) was performed with multiple comparisons corrected for using a false discovery rate p-value cutoff of 0.05. Metabolite-Pathway analysis was performed using the R package of MetaboAnalyst, as previously described ([Xia and Wishart, 2010]). Metabolite-Protein nodal analysis was performed using omicsnet.ca and as previously described ([Zhou and Xia, 2018]).

[1] = treated erythrocytes, one value per replicate sample, polarity +
[2] = treated erythrocytes, one value per replicate sample, polarity -
[3] = treated erythrocytes, replicate samples

CC(C)(C)C(=O)OCOP(=O)(OCOC(=O)C(C)(C)C)C1CC(O)N(O)C1=O (stereo not shown) [POMSF]
AMP level (metabolomics signal) (replicate samples): 2.14E+06 and 1.66E+06 and 1.77E+06
ATP level (metabolomics signal) (replicate samples): 1.57E+04 and 2.82E+04 and 2.26E+04
Adenine level (metabolomics signal) (replicate samples): 1.34E+05 and 1.22E+05 and 1.52E+05
Cytosine level (metabolomics signal) (replicate samples): 3.68E+05 and 3.33E+05 and 3.22E+05
L-alanine level (metabolomics signal) (replicate samples): 8.35E+06 and 9.14E+06 and 1.12E+07
L-arginine level (metabolomics signal) (replicate samples): 1.02E+07 and 1.01E+07 and 0.00E+00
L-asparagine level (metabolomics signal) (replicate samples): 7.51E+06 and 6.72E+06 and 7.84E+06
L-aspartate level (metabolomics signal) (replicate samples): 3.12E+07 and 3.26E+07 and 2.90E+07
L-cysteine level (metabolomics signal) (replicate samples): 1.80E+06 and 1.83E+06 and 5.70E+05
L-glutamate level (metabolomics signal) (replicate samples): 3.18E+07 and 2.68E+07 and 2.49E+07
L-glutamine level (metabolomics signal) (replicate samples): 8.50E+07 and 9.01E+07 and 8.26E+07
L-histidine level (metabolomics signal) (replicate samples): 1.59E+06 and 1.54E+06 and 1.57E+06
L-isoleucine level (metabolomics signal) (replicate samples): 1.27E+07 and 1.24E+07 and 1.09E+07
L-leucine level (metabolomics signal) (replicate samples): 2.27E+08 and 2.54E+08 and 2.31E+08
L-lysine level (metabolomics signal) (replicate samples): 2.40E+06 and 2.03E+06 and 1.89E+06
L-methionine level (metabolomics signal) (replicate samples): 2.24E+07 and 2.35E+07 and 2.22E+07
L-phenylalanine level (metabolomics signal) (replicate samples): 1.58E+07 and 1.49E+07 and 1.43E+07
L-proline level (metabolomics signal) (replicate samples): 6.58E+07 and 5.90E+07 and 5.39E+07
L-serine level (metabolomics signal) (replicate samples): 4.64E+06 and 5.26E+06 and 6.00E+06
L-threonine level (metabolomics signal) (replicate samples): 8.46E+06 and 8.55E+06 and 8.85E+06
L-tryptophan level (metabolomics signal) (replicate samples): 5.00E+06 and 4.41E+06 and 4.35E+06
L-tyrosine level (metabolomics signal) (replicate samples): 2.58E+07 and 2.87E+07 and 2.75E+07
L-valine level (metabolomics signal) (replicate samples): 1.53E+08 and 1.47E+08 and 1.51E+08
dCMP level (metabolomics signal) (replicate samples): 1.51E+04 and 1.42E+04 and 1.15E+04
dTMP level (metabolomics signal) (replicate samples): 1.28E+06 and 1.27E+06 and 1.22E+06
glycine level (metabolomics signal) (replicate samples): 1.77E+06 and 2.28E+06 and 2.53E+06
N-Acyl-D-aspartate (C06380) metabolite signal [1]: 1.57E+05 and 1.16E+05 and 1.31E+05
Poly-gamma-D-glutamate (C05723) metabolite signal [1]: 5.78E+07 and 6.19E+07 and 5.54E+07
D-Ribitol 5-phosphate (C01068) metabolite signal [2]: 2.08E+04 and 2.67E+04 and 2.32E+04
D-glucono-1,5-lactone (C00198) metabolite signal [2]: 3.06E+05 and 3.20E+05 and 3.38E+05
L-Noradrenaline (C00547) metabolite signal [2]: 3.16E+04 and 3.80E+04 and 3.20E+04
Oxalosuccinate (C05379) metabolite signal [2]: 9.37E+04 and 1.04E+05 and 9.63E+04
Pyridoxamine (C00534) metabolite signal [2]: 1.68E+04 and 1.54E+04 and 2.58E+04
Thioredoxin disulfide (C00343) metabolite signal [2]: 5.72E+04 and 1.02E+05 and 5.14E+04
1-4-beta-D-Xylan (metabolite signal) [3]: 1.97E+05 and 1.92E+05 and 2.09E+05
2-Hydroxyglutarate/Citramalate (C02630) metabolite signal [3]: 7.86E+04 and 5.69E+04 and 5.61E+04
5-6-Dihydrothymine (C00906) metabolite signal [3]: 2.50E+05 and 2.77E+05 and 2.96E+05
5-10-Methenyltetrahydrofolate (metabolite signal) [3]: 1.06E+05 (2×) and 7.96E+04
5-Hydroxyisourate (C11821) metabolite signal [3]: 1.50E+06 and 2.10E+06 and 4.21E+06
5-L-Glutamyl-taurine (metabolite signal) [3]: 1.11E+05 and 1.18E+05 and 1.16E+05
5-Oxoproline (metabolite signal) [3]: 8.27E+05 and 7.57E+05 and 7.14E+05
(S)(+)-Allantoin (C02350) metabolite signal [3]: 1.72E+04 and 1.57E+04 and 2.62E+04
Allantoate (C00499) metabolite signal [3]: 6.65E+05 and 5.04E+05 and 3.15E+05
Ascorbate (metabolite signal) [3]: 1.17E+05 and 8.53E+04 and 8.00E+04
CMP-N-acetylneuraminate (metabolite signal) [3]: 1.67E+04 and 8.29E+03 and 7.76E+03
Carnosine (metabolite signal) [3]: 1.06E+05 and 9.45E+04 and 2.03E+05
Citrate (C00158) metabolite signal [3]: 4.35E+04 and 3.82E+04 and 3.29E+04
Creatine (metabolite signal) [3]: 2.46E+08 and 2.26E+08 and 2.23E+08
Creatinine (metabolite signal) [3]: 2.77E+06 and 2.62E+06 and 2.87E+06
Cys-Gly (metabolite signal) [3]: 2.32E+06 and 2.14E+06 and 1.32E+06
D-Glucosamine (metabolite signal) [3]: 2.29E+05 and 1.27E+05 and 2.04E+05
D-Glucose (C00031) metabolite signal [3]: 5.29E+06 and 5.04E+06 and 5.14E+06
D-Ribose (C00121) metabolite signal [3]: 1.64E+05 and 1.19E+05 and 1.18E+05
Dehydroascorbate (metabolite signal) [3]: 6.32E+04 and 5.87E+04 and 4.12E+04
Dihydrofolate (metabolite signal) [3]: 3.00E+06 and 2.07E+06 and 9.85E+05
Dimethylglycine (metabolite signal) [3]: 8.86E+05 and 1.02E+06 and 8.96E+05
Diphosphate (C00013) metabolite signal [3]: 2.94E+04 and 3.31E+04 and 1.77E+04
Fumarate (C00122) metabolite signal [3]: 1.04E+05 and 8.86E+04 and 8.87E+04
Glutathione (C00051) metabolite signal [3]: 1.54E+08 and 1.50E+08 and 9.17E+07
Glutathione disulfide (metabolite signal) [3]: 1.48E+05 and 9.64E+04 and 9.50E+04
Hypoxanthine (C00262) metabolite signal [3]: 3.21E+04 and 1.66E+04 and 8.15E+03
IMP (C00130) metabolite signal [3]: 1.58E+05 and 9.80E+04 and 1.96E+05
Inosine (C00294) metabolite signal [3]: 6.71E+04 and 6.29E+04 and 6.63E+04
L-Citrulline (metabolite signal) [3]: 2.74E+06 and 3.23E+06 and 3.99E+06
L-Homoserine (metabolite signal) [3]: 2.34E+05 and 2.10E+05 and 2.35E+05
Lactate (C01432) metabolite signal [3]: 9.22E+06 and 8.76E+06 and 8.98E+06
Malate (C00149) metabolite signal [3]: 1.55E+05 and 1.07E+05 and 9.91E+04
Mannitol (C00392) metabolite signal [3]: 1.01E+05 and 9.53E+04 and 1.38E+05
N-Acetylneuraminate (metabolite signal) [3]: 2.25E+04 and 1.68E+04 and 2.38E+04
N-Glycoloyl-neuraminate (metabolite signal) [3]: 1.23E+05 and 1.51E+05 and 1.32E+05
NAD+ (C00003) metabolite signal [3]: 8.73E+04 and 4.11E+04 and 4.40E+04
Nicotinamide (C00153) metabolite signal [3]: 3.46E+07 and 3.78E+07 and 4.86E+07
Ornithine (metabolite signal) [3]: 1.57E+06 (2×) and 1.55E+06
Oxaloacetate (C00036) metabolite signal [3]: 5.69E+04 and 5.42E+04 and 4.38E+04
Phosphoserine (metabolite signal) [3]: 0.00E+00 (2×) and 3.46E+04
Putrescine (metabolite signal) [3]: 4.96E+04 and 2.87E+04 and 4.23E+04
Pyridoxal (C00250) metabolite signal [3]: 5.84E+04 and 5.75E+04 and 6.92E+04
Pyruvate (C00022) metabolite signal [3]: 9.01E+05 and 7.95E+05 and 8.15E+05
S-Glutathionyl-L-cysteine (metabolite signal) [3]: 1.18E+05 and 8.54E+04 and 7.69E+04
Sedoheptulose 1-phosphate (C06222) metabolite signal [3]: 1.59E+04 and 1.93E+04 and 8.80E+03
Spermidine (metabolite signal) [3]: 8.37E+06 and 7.92E+06 and 6.82E+06
Spermine (metabolite signal) [3]: 1.09E+07 and 1.10E+07 and 8.00E+06
Succinate (C00042) metabolite signal [3]: 7.45E+04 and 8.48E+04 and 5.74E+04
Thymidine (C00214) metabolite signal [3]: 1.11E+04 and 1.24E+04 and 8.29E+03
UDP (C00015) metabolite signal [3]: 2.25E+05 and 1.89E+05 and 1.40E+05
UDP-N-acetyl-D-glucosamine (metabolite signal) [3]: 1.24E+04 and 7.59E+03 and 4.65E+03
UDP-glucose (C00029) metabolite signal [3]: 2.38E+04 and 1.72E+04 and 9.18E+03
Urate (C00366) metabolite signal [3]: 3.27E+04 and 2.94E+04 and 2.46E+04
Xanthine (C00385) metabolite signal [3]: 2.31E+05 and 1.91E+05 and 1.90E+05
alpha-D-Glucosamine 1-phosphate (metabolite signal) [3]: 4.45E+05 and 6.15E+05 and 8.58E+05
alpha-D-Ribose 1-phosphate (C00620) metabolite signal [3]: 6.39E+04 and 6.67E+04 and 4.32E+04
gamma-Glutamyl-gamma-aminobutyrate (metabolite signal) [3]: 7.63E+04 and 8.93E+04 and 1.06E+05
gamma-L-Glutamyl-D-alanine (metabolite signal) [3]: 4.26E+04 and 3.07E+04 and 3.12E+04
gamma-L-Glutamyl-L-cysteine (metabolite signal) [3]: 3.96E+04 and 5.76E+04 and 1.90E+04
